Source: patent US10597388B2, “Pyridazinone herbicides” (FMC CORPORATION, priority 2014, dated 2020)

What was measured:
Experiment in all cases: Test D controlled growth environment herbicide test, pre- and postemergence
Format in all cases: in vivo
[1] = test system: deadnettle (henbit deadnettle, Lamium amplexicaule)
From the text: (§1) Seeds of plant species selected from bluegrass (annual bluegrass, Poa annua), blackgrass (Alopecurus myosuroides), Canada thistle (Cirsium arvense), canarygrass (Phalaris minor), chickweed (common chickweed, Stellaria media), geranium, cutleaf (cutleaf geranium, Geranium dissectum), galium (catchweed bedstraw, Galium aparine), bromegrass, downy (downy bromegrass, Bromus tectorum), field poppy (Papaver rhoeas), field violet (Viola arvensis), foxtail, green (green foxtail, Setaria viridis), deadnettle (henbit deadnettle, Lamium amplexicaule), ryegrass, Italian (Italian ryegrass, Lolium multiflorum), kochia (Kochia scoparia), lambsquarters (Chenopodium album), oilseed rape (Brassica napus), pigweed (Amaranthus retroflexus), chamomile (scentless chamomile, Matricaria inodora), Russian thistle (Salsola kali), speedwell (bird's-eye speedwell, Veronica persica), barley, spring (spring barley, Hordeum vulgare), wheat, spring (spring wheat, Triticum aestivum), buckwheat, wild (wild buckwheat, Polygonum convolvulus), mustard, wild (wild mustard, Sinapis arvensis), oat, wild (wild oat, Avena fatua), radish, wild (wild radish, Raphanus raphanistrum), windgrass (Apera spica-venti), barley, winter (winter barley, Hordeum vulgare), and wheat, winter (winter wheat, Triticum aestivum) were planted into a silt loam soil and treated preemergence with test chemicals formulated in a non-phytotoxic solvent mixture which included a surfactant.
(§2) At the same time, these species were planted in pots containing Redi-Earth® planting medium (Scotts Company, 14111 Scottslawn Road, Marysville, Ohio 43041) comprising spaghnum peat moss, vermiculite, wetting agent and starter nutrients and treated with postemergence applications of the test chemicals formulated in the same manner. Plants ranged in height from 2 to 18 cm (1- to 4-leaf stage). Treated plants and controls were maintained in a controlled growth environment for 14 to 21 d after which time all species were compared to controls and visually evaluated. Plant response ratings, summarized in Table D, are based on a scale of 0 to 100 where 0 is no effect and 100 is complete control. A dash (-) response means no test result.

[2] = test system: field poppy (Papaver rhoeas)
From the text: as §1, §2

[3] = test system: blackgrass (Alopecurus myosuroides)
From the text: as §1, §2

[4] = test system: chamomile (scentless chamomile, Matricaria inodora)
From the text: as §1, §2

[5] = test system: wheat, winter (winter wheat, Triticum aestivum)
From the text: as §1, §2

[6] = test system: lambsquarters (Chenopodium album)
From the text: as §1, §2

[7] = test system: barley, winter (winter barley, Hordeum vulgare)
From the text: as §1, §2

[8] = test system: ryegrass, Italian (Italian ryegrass, Lolium multiflorum)
From the text: as §1, §2

[9] = test system: wheat, spring (spring wheat, Triticum aestivum)
From the text: as §1, §2

[10] = test system: bromegrass, downy (downy bromegrass, Bromus tectorum)
From the text: as §1, §2

[11] = test system: barley, spring (spring barley, Hordeum vulgare)
From the text: as §1, §2

[12] = test system: foxtail, green (green foxtail, Setaria viridis)
From the text: as §1, §2

[13] = test system: chickweed (common chickweed, Stellaria media)
From the text: as §1, §2

[14] = Postemergence, 31 g ai/ha, scale 0 to 100 (0 no effect, 100 complete control)
[15] = Postemergence, 125 g ai/ha, visual rating on scale 0 (no effect) to 100 (complete control), 14 to 21 d
[16] = Postemergence, 250 g ai/ha, scale 0 to 100 (0 no effect, 100 complete control)
[17] = Preemergence, 62 g ai/ha, scale 0 to 100 (0 no effect, 100 complete control)
[18] = Preemergence, 125 g ai/ha, scale 0 to 100 (0 no effect, 100 complete control)
[19] = Preemergence, 250 g ai/ha, scale 0 to 100 (0 no effect, 100 complete control)
[20] = postemergence, 62 g ai/ha, scale 0 to 100, 0 no effect, 100 complete control

CCC(=O)Oc1c(C)nn(C)c(=O)c1-c1c(C)sc2c(C)cc(C)cc12 [Compound 28]
90: Plant response rating, Field Poppy [2, 20] | Plant response rating, Chamomile [4, 15] | Plant response rating, Chamomile [4, 20] | Plant response rating, Lambsquarters [6, 15] | Plant response rating, Lambsquarters [6, 16] | Plant response rating (scale of 0 to 100), Ryegrass, Italian ([8]; Preemergence, 31 g ai/ha) | Plant response rating, Foxtail, Green [12, 16]
75: Blackgrass plant response rating [3, 14] | Ryegrass, Italian plant response rating [8, 14] | Plant response rating, Foxtail, Green [12, 20]
55: Plant response rating, Bromegrass, Downy [10, 17]
0: Plant response rating (scale of 0 to 100), Deadnettle ([1]; Preemergence, 31 g ai/ha) | Plant response rating, Deadnettle [1, 17] | Plant response rating (scale of 0 to 100), Wheat, Winter ([5]; Preemergence, 31 g ai/ha) | Plant response rating, Wheat, Winter [5, 17] | Plant response rating, Wheat, Winter [5, 18] | Plant response rating, Wheat, Winter [5, 19] | Plant response rating, Barley, Winter [7, 14] | Plant response rating (scale of 0 to 100), Barley, Winter ([7]; Preemergence, 31 g ai/ha) | Plant response rating, Barley, Winter [7, 17] | Plant response rating, Barley, Winter [7, 20] | Wheat, Spring plant response rating [9, 14] | Plant response rating (scale of 0 to 100), Wheat, Spring ([9]; Preemergence, 31 g ai/ha) | Plant response rating, Wheat, Spring [9, 17] | Plant response rating (scale of 0 to 100), Barley, Spring ([11]; Preemergence, 31 g ai/ha) | Plant response rating, Barley, Spring [11, 17] | Plant response rating, Barley, Spring [11, 18] | Barley, Spring plant response rating [11, 19]
80: Field Poppy plant response rating [2, 14] | Plant response rating, Blackgrass [3, 20] | Lambsquarters plant response rating [6, 14] | Plant response rating, Ryegrass, Italian [8, 15] | Plant response rating, Ryegrass, Italian [8, 20] | Plant response rating, Foxtail, Green [12, 17]
15: Plant response rating, Wheat, Winter [5, 16] | Plant response rating, Barley, Winter [7, 18] | Barley, Winter plant response rating [7, 19] | Bromegrass, Downy plant response rating [10, 14]
65: Foxtail, Green plant response rating [12, 14]
95: Plant response rating, Field Poppy [2, 17] | Plant response rating, Field Poppy [2, 18] | Blackgrass plant response rating [3, 19] | Plant response rating, Chamomile [4, 16] | Plant response rating, Chamomile [4, 17] | Plant response rating, Ryegrass, Italian [8, 17]
25: Plant response rating, Wheat, Spring [9, 19] | Plant response rating, Bromegrass, Downy [10, 20]
85: Plant response rating, Blackgrass [3, 15] | Plant response rating, Blackgrass [3, 16] | Plant response rating (scale of 0 to 100), Blackgrass ([3]; Preemergence, 31 g ai/ha) | Plant response rating, Blackgrass [3, 17] | Plant response rating, Blackgrass [3, 18] | Chamomile plant response rating [4, 14] | Plant response rating, Lambsquarters [6, 20] | Plant response rating, Ryegrass, Italian [8, 16] | Plant response rating, Bromegrass, Downy [10, 19] | Plant response rating, Foxtail, Green [12, 15]
100: Plant response rating, Field Poppy [2, 15] | Plant response rating, Field Poppy [2, 16] | Plant response rating (scale of 0 to 100), Field Poppy ([2]; Preemergence, 31 g ai/ha) | Plant response rating, Field Poppy [2, 19] | Plant response rating (scale of 0 to 100), Chamomile ([4]; Preemergence, 31 g ai/ha) | Plant response rating, Chamomile [4, 18] | Plant response rating, Chamomile [4, 19] | Plant response rating (scale of 0 to 100), Lambsquarters ([6]; Preemergence, 31 g ai/ha) | Plant response rating, Lambsquarters [6, 17] | Plant response rating, Lambsquarters [6, 18] | Plant response rating, Lambsquarters [6, 19] | Plant response rating, Ryegrass, Italian [8, 18] | Plant response rating, Ryegrass, Italian [8, 19] | Plant response rating, Foxtail, Green [12, 18] | Plant response rating, Foxtail, Green [12, 19] | Chickweed plant response rating [13, 14] | Plant response rating, Chickweed [13, 15] | Plant response rating, Chickweed [13, 16] | Plant response rating (scale of 0 to 100), Chickweed ([13]; Preemergence, 31 g ai/ha) | Plant response rating, Chickweed [13, 17] | Plant response rating, Chickweed [13, 18] | Plant response rating, Chickweed [13, 19] | Plant response rating, Chickweed [13, 20]
5: Plant response rating, Deadnettle [1, 18] | Plant response rating, Deadnettle [1, 19] | Wheat, Winter plant response rating [5, 14] | Plant response rating, Wheat, Winter [5, 15] | Plant response rating, Wheat, Winter [5, 20] | Plant response rating, Barley, Winter [7, 15] | Plant response rating, Barley, Winter [7, 16] | Plant response rating, Wheat, Spring [9, 18] | Plant response rating, Wheat, Spring [9, 20] | Plant response rating, Barley, Spring [11, 14] | Plant response rating, Barley, Spring [11, 15] | Plant response rating, Barley, Spring [11, 20]
10: Deadnettle plant response rating [1, 14] | Plant response rating, Wheat, Spring [9, 15] | Plant response rating, Barley, Spring [11, 16]
70: Plant response rating, Deadnettle [1, 16] | Plant response rating, Bromegrass, Downy [10, 16] | Plant response rating, Bromegrass, Downy [10, 18] | Plant response rating (scale of 0 to 100), Foxtail, Green ([12]; Preemergence, 31 g ai/ha)
45: Plant response rating (scale of 0 to 100), Bromegrass, Downy ([10]; Preemergence, 31 g ai/ha)
35: Plant response rating, Deadnettle [1, 15] | Plant response rating, Deadnettle [1, 20]
20: Plant response rating, Wheat, Spring [9, 16]
40: Plant response rating, Bromegrass, Downy [10, 15]
